# Test results reported in ChEMBL document CHEMBL1126739, “Excursions in drug discovery” (J Med Chem, 1993).
# Columns and labels:
# [1] = target: T1, Renin (Homo sapiens, UniProt P00797); assay: Inhibition of human renin
# T1 sequence (P00797 whole entry): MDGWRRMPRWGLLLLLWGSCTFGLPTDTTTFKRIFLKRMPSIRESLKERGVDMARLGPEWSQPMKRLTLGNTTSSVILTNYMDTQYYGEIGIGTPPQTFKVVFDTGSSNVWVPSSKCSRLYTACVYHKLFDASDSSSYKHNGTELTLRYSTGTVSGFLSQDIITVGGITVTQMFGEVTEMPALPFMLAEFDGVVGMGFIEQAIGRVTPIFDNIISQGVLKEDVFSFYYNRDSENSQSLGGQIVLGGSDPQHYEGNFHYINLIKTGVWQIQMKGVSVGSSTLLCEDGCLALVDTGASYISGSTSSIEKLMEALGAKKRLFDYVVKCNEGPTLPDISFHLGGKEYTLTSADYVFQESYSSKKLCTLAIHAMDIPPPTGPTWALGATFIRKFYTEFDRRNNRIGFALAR
# [2] = target: T2, Angiotensin-converting enzyme (Homo sapiens, UniProt P12821); assay: Inhibition of Angiotensin I converting enzyme
# [3] = target: T3, Cholecystokinin receptor type A (Homo sapiens, UniProt P32238); assay: Antagonistic activity against cholecystokinin type A receptor; type: functional
# T3 sequence (P32238 whole entry): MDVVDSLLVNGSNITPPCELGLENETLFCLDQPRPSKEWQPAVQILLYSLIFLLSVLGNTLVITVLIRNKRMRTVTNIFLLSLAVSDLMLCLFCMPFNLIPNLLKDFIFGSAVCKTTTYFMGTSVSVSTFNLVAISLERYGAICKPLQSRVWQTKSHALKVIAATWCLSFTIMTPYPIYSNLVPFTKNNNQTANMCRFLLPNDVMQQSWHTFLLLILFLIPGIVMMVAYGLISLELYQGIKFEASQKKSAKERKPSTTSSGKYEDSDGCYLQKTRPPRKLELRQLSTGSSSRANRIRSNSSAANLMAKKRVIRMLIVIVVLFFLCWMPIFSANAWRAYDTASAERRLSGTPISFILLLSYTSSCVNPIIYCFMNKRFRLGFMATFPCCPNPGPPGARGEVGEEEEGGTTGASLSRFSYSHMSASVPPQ
# [4] = target: T4, Thermolysin (Bacillus thermoproteolyticus, UniProt P00800); assay: Inhibition of metallopeptidase thermolysin
# T4 sequence (P00800 whole entry): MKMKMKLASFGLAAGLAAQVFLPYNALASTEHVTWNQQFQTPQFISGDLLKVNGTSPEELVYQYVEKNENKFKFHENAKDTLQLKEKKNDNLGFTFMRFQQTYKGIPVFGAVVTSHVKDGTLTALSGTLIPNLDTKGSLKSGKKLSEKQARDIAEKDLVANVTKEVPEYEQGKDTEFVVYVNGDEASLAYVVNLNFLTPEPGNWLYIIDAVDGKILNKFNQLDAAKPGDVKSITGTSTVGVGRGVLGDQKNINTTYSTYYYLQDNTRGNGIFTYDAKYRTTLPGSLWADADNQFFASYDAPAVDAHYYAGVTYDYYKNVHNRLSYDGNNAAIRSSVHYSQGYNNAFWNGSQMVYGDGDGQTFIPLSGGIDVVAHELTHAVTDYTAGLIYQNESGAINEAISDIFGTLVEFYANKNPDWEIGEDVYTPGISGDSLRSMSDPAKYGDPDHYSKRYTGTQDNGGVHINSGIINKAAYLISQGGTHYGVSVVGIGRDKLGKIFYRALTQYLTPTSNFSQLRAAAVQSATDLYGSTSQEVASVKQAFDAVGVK
# [5] = target: T2, Angiotensin-converting enzyme; assay: Inhibition of Angiotensin I converting enzyme at 3.3 x 10 E -4M concentration
# T2 sequence (P12821 whole entry): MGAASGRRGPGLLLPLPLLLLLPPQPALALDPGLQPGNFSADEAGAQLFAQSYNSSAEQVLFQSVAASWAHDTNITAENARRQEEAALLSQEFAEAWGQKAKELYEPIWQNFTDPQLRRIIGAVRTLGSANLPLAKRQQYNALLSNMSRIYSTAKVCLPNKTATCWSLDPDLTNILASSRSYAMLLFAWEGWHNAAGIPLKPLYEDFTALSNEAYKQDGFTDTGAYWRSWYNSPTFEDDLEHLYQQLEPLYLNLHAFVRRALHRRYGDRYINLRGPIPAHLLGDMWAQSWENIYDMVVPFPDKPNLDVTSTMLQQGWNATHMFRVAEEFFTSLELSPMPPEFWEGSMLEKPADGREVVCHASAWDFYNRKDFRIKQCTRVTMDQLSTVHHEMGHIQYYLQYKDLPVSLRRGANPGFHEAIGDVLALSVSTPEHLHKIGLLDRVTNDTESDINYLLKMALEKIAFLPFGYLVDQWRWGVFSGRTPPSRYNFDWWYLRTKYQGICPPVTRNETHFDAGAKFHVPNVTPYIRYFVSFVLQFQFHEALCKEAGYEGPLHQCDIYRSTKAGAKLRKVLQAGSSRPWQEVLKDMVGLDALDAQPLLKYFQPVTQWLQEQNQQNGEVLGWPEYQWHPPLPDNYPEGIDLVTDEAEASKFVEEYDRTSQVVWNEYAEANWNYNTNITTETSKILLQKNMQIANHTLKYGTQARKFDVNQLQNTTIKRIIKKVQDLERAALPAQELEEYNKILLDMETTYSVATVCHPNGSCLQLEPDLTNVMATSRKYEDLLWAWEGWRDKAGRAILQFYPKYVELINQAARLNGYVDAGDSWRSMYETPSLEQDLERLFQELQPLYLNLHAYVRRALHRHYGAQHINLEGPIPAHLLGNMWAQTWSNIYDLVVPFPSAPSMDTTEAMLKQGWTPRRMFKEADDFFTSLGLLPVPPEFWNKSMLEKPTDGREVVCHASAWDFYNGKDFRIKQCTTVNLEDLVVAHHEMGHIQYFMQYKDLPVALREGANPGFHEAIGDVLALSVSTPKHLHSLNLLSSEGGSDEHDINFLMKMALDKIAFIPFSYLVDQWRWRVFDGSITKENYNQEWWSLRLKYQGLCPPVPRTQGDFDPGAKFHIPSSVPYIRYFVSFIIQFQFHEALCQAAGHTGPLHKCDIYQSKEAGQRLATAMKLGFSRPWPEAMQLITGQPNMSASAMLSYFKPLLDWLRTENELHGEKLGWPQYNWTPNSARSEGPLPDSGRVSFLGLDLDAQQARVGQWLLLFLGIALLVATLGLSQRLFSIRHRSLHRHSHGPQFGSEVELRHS
SMILES,IC50 [2],further results
CC(C)(C)S(=O)(=O)C[C@@H](Cc1ccccc1)C(=O)NC1CSCCC[C@H](CN2CCOCC2)OC(=O)[C@H](O)[C@H](CC2CCCCC2)NC1=O (some centres undefined),–,IC50 [1]: 0.35 nM
CC(CCC(=O)N1CCCC1C(=O)O)C(=O)O (centres undefined),260000 nM,–
CC(C)C[C@@H]1N[C@H]2N(C1=O)c1ccccc1[C@@]2(O)C[C@@H]1NC(=O)c2ccccc2-n2c1nc1ccccc1c2=O [ASPERLICIN],–,IC50 [3]: 1400 nM
CC(N[C@H](C)C(=O)N1CCC[C@H]1C(=O)O)C(=O)O (some centres undefined),90 nM,–
C[C@@H](NCC(=O)O)C(=O)N1CCC[C@H]1C(=O)O,2400 nM,–
C[C@@H](CCC(=O)O)C(=O)N1CCCC1C(=O)O (some centres undefined),4900 nM,–
CC(NP(=O)(O)CCc1ccccc1)C(=O)N1CCCC1C(=O)O (centres undefined),–,IC50 [4]: 7 nM
O=C(CCC(=O)N1CCCC1C(=O)O)NO (centres undefined),50000 nM,–
O=C(O)CCC(=O)N1CCCC1C(=O)O (centres undefined),–,inhibition [5]: 43%
